Experimental data taken from US9605023B2, “Application of SP peptide or derivative thereof in preparing medicines for preventing or treating asthma” (priority 2012, dated 2017).
Where no end group is shown, it is not given here.

Legend:
[1] = test system: allergic asthma mouse model; test: Histopathologic examination and lesion score of lung tissues of allergic asthma mice induced by ovalbumin and aluminium hydroxide; format: in vivo
Method: (§1) ICR mice, half male and half female, are divided randomly into 9 groups with each group having 10 mice, that is:
(§2) 3) positive medicines group (administer an equal volume of dexamethasone injection solution with the model group, having the dosage of 0.9 μg/kg·d);
(§3) All dosage groups of the SP peptide are administered by subcutaneous injection with a 0.1 ml SP peptide solution per 10 g weight of a mouse, the blank control group uses the same amount of physiological saline (0.1 ml physiological saline per 10 g weight of a mouse), and the positive medicines group is administered by intraperitoneal injection with 0.1 ml positive medicines per 10 g weight of a mouse.
(§4) Preparation of sensitized liquid: prepare in a proportion of dissolving 10 ug ovalbumin and 2 mg aluminium hydroxide in 0.5 ml physiological saline, and use it right after being prepared.
(§5) On day 1, day 7 and day 14, the mice of all groups (the model group, the preventive administration groups, the treatment administration groups, and the positive medicines group) apart from the blank control group are injected intraperitoneally with 0.5 ml freshly prepared sensitized liquid. The blank control group is injected intraperitoneally with an equal volume of physiological saline.
(§6) Since day 21 (i.e., starting from week 4), the mice of all groups apart from the blank control group are placed in a 16 L closed container every fourth days, make the mice inhale 1 wt % ovalbumin physiological saline by ultrasonic nebulization, with an inhalation duration of 25 min/d and a nebulization flow rate of 3 ml/min, for twice a week to induce asthma, and the process continues until week 19. The mice in the blank control group undergo nebulization […] with an equal volume of physiological saline.
(§7) Particularly, the preventive administration group (the SP peptide high-dosage preventive administration group, SP peptide medium-dosage preventive administration group, and SP peptide low-dosage preventive administration group) are injected subcutaneously a corresponding dosage of SP peptide at right hindlimb of the mouse, one hour after the first intraperitoneal injection of the sensitized liquid (i.e., from day 1), and are administered every other day for 15 times in total.
(§8) From the same day, the mice in the treatment administration groups (SP high-dosage treatment administration group, SP medium-dosage treatment administration group, and SP low-dosage treatment administration group) are injected subcutaneously with a corresponding dosage of SP peptide at right hindlimb thereof, and are administered every other day for 15 times in total. From the same day, the mice in the positive medicines group are injected intraperitoneally with 0.1 ml dexamethasone injection per 10 g weight of a mouse, and are administered every other day for 15 times in total.
Lung tissue lesions (including bronchia and perivascular interstitial edema, alveolar wall congestion or emphysema) are marked respectively as 1, 2, 3 and 4 in ascending order of severity, 0 stands for no obvious lesions, and 0.5 for extreme mild lesions. All scores are accumulated, and a mean score (±SD) of each mouse in each group is calculated, and a higher score indicates a more severe level of lesions. Perform a rank-sum test to pathological score results to compare the two samples, and compare with the model group.
2.2 Data Processing: perform data processing to all data, rank-sum test to pathological score, t-test to the other data, and make statistics to analytic results.

[2] = test system: IL-13; test: IL-13 level (ELISA) in serum and lung tissue homogenates of allergic asthma mice induced by ovalbumin and aluminium hydroxide; format: in vivo, mouse; settings: for IL-13 level in serums / IL-13 level in lung tissue homogenates: compared to model group
Method: as §1, §2
(§9) 4) SP peptide high-dosage preventive administration group, 5) SP peptide medium-dosage preventive administration group, and 6) SP peptide low-dosage preventive administration group (administer ovalbumin and aluminium hydroxide, and the SP peptides with a respective dosage of 250 μg/kg·d, 125 μg/kg·d and 62.5 μg/kg·d prepared into an SP peptide solution of a desired concentration with physiological saline).
(§10) 7) SP peptide high-dosage treatment administrative group, 8) SP peptide medium-dosage treatment administration group, and 9) SP peptide low-dosage treatment administration group (administer ovalbumin and aluminium hydroxide, and the SP peptides with a respective dosage of 250 μg/kg·d, 125 μg/kg·d and 62.5 μg/kg·d prepared into an SP peptide solution of a desired concentration with physiological saline).
as §3, §4, §5, §6, §7, §8
(§11) As for the determination of the experimental result, all mice are killed to obtain blood by picking off their eyeballs 6 hours after the final nebulization inhalation (week 19), and serum is collected and stored at −70° C. until needed. […]

[3] = test system: IL-4; test: IL-4 level (ELISA) in serum and lung tissue homogenates of allergic asthma mice induced by ovalbumin and aluminium hydroxide; format: in vivo, mouse
Method: as §1, §2, §9, §10, §3, §4, §5, §6, §7, §8, §11

[4] = test system: IL-13; test: IL-13 level (ELISA) in serum and lung tissue homogenates of allergic asthma mice induced by ovalbumin and aluminium hydroxide; format: in vivo, mouse; settings: compared to model group
[5] = test system: r-IFN, IL-4 and IL-10; settings: disclosed in CN1194986C and CN1216075C; cited from earlier work
[6] = test system: TNF-α; settings: pneumonia; recorded in CN101822816A; cited from earlier work
[7] = positive drug group, dexamethasone 0.9 μg/kg·d i.p. every other day x15 from week 15, FIG. 6
[8] = all SP peptide high-/medium-/low-dosage preventive and treatment administration groups, compared to the model group (summary statement)
[9] = SP peptide high-dosage preventive administration group, 250 μg/kg·d s.c., FIG. 9
[10] = SP peptide high-dosage treatment administration group, 250 μg/kg·d s.c., FIG. 12
[11] = SP peptide low-dosage preventive administration group, 62.5 μg/kg·d s.c., FIG. 7
[12] = SP peptide low-dosage treatment administration group, 62.5 μg/kg·d s.c., FIG. 10
[13] = SP peptide medium-dosage preventive administration group, 125 μg/kg·d s.c., FIG. 8
[14] = SP peptide medium-dosage treatment administration group, 125 μg/kg·d s.c., FIG. 11

C[C@@H]1C[C@H]2[C@@H]3CCC4=CC(=O)C=C[C@]4(C)[C@@]3(F)[C@@H](O)C[C@]2(C)[C@@]1(O)C(=O)CO [positive drug, dexamethasone, reference compound]
inflammatory cells infiltration (lung tissue section) [1, 7]: infiltration with a few inflammatory cells | pulmonary interstitial edema (lung tissue section) [1, 7]: mild pulmonary interstitial edema

GQTYTSG
IL-13 level in serums ([2]; SP peptide high-dosage preventive administration group, 250 μg/kg·d s.c. every other day x15 from day 1): significantly decreased | IL-13 level in lung tissue homogenates ([2]; SP peptide high-dosage preventive administration group, 250 μg/kg·d s.c.): significantly decreased | IL-13 level in lung tissue homogenates ([2]; SP peptide high-dosage treatment administration group, 250 μg/kg·d s.c.): significantly decreased | IL-13 level in lung tissue homogenates ([2]; SP peptide low-dosage treatment administration group, 62.5 μg/kg·d s.c.): significantly decreased | IL-13 level in serums ([2]; SP peptide medium-dosage preventive administration group, 125 μg/kg·d s.c. every other day x15 from day 1): significantly decreased | IL-13 level in lung tissue homogenates ([2]; SP peptide medium-dosage preventive administration group, 125 μg/kg·d s.c.): significantly decreased | IL-13 level in lung tissue homogenates ([2]; SP peptide medium-dosage treatment administration group, 125 μg/kg·d s.c.): significantly decreased | IL-13 level [2, 8]: significantly reduced | IL-4 level ([3]; SP peptide high-dosage preventive administration group, 250 μg/kg·d s.c., compared to model group): significantly decreased | IL-4 level ([3]; SP peptide high-dosage treatment administration group, 250 μg/kg·d s.c., compared to model group): significantly decreased | IL-4 level ([3]; SP peptide low-dosage treatment administration group, 62.5 μg/kg·d s.c., compared to model group): significantly decreased | IL-4 level ([3]; SP peptide medium-dosage preventive administration group, 125 μg/kg·d s.c., compared to model group): significantly decreased | IL-4 level ([3]; SP peptide medium-dosage treatment administration group, 125 μg/kg·d s.c., compared to model group): significantly decreased | IL-4 level [3, 8]: significantly reduced | overall score of lung tissue lesion level, difference compared to the model group (rank-sum test) ([1]; SP peptide high-dosage preventive administration group, 250 μg/kg·d s.c., ** P<0.01, FIG. 3): highly significant differences | inflammatory cells infiltration (lung tissue section) [1, 9]: infiltration with a few inflammatory cells around bronchus | pulmonary interstitial edema (lung tissue section) [1, 9]: mild pulmonary interstitial edema | overall score of lung tissue lesion level, difference compared to the model group (rank-sum test) ([1]; SP peptide high-dosage treatment administration group, 250 μg/kg·d s.c., ** P<0.01, FIG. 3): highly significant differences | inflammatory cells infiltration (lung tissue section) [1, 10]: infiltration with a few inflammatory cells | pulmonary interstitial edema (lung tissue section) [1, 10]: mild pulmonary interstitial edema | overall score of lung tissue lesion level, difference compared to the model group (rank-sum test) ([1]; SP peptide low-dosage preventive administration group, 62.5 μg/kg·d s.c., * P<0.05, FIG. 3): significant differences | inflammatory cells infiltration (lung tissue section) [1, 11]: infiltration with greater inflammatory cells | pulmonary interstitial edema (lung tissue section) [1, 11]: moderate or severe pulmonary interstitial edema | overall score of lung tissue lesion level, difference compared to the model group (rank-sum test) ([1]; SP peptide low-dosage treatment administration group, 62.5 μg/kg·d s.c., * P<0.05, FIG. 3): significant differences | inflammatory cells infiltration (lung tissue section) [1, 12]: infiltration with greater inflammatory cells | pulmonary interstitial edema (lung tissue section) [1, 12]: moderate intrapulmonary small perivascular and peribronchial pulmonary interstitial edema | overall score of lung tissue lesion level, difference compared to the model group (rank-sum test) ([1]; SP peptide medium-dosage preventive administration group, 125 μg/kg·d s.c., * P<0.05, FIG. 3): significant differences | inflammatory cells infiltration (lung tissue section) [1, 13]: infiltration with a few inflammatory cells | pulmonary interstitial edema (lung tissue section) [1, 13]: moderate or mild pulmonary interstitial edema | overall score of lung tissue lesion level, difference compared to the model group (rank-sum test) ([1]; SP peptide medium-dosage treatment administration group, 125 μg/kg·d s.c., ** P<0.01, FIG. 3): highly significant differences | alveolar wall congestion or emphysema (lung tissue section) [1, 14]: congestion around alveolar walls, alveoli are in an emphysematous state | inflammatory cells infiltration (lung tissue section) [1, 14]: infiltration with many inflammatory cells | pulmonary interstitial edema (lung tissue section) [1, 14]: mild intrapulmonary small perivascular and peribronchial pulmonary interstitial edema | bronchia and perivascular interstitial edema, edematous inflammatory cells infiltration, alveolar wall congestion or emphysema ([1]; after administering SP peptide for prevention or treatment, histopathologic test, FIG. 3): significantly reduced | lung tissue lesion level [1, 8]: significantly alleviated | asthma modelling by pathological check on day 1 of week 15 ([1]; five mice drawn from each group, preventive administration groups (SP peptide 250, 125, 62.5 μg/kg·d s.c. from day 1, x15)): all asthma groups apart from the preventive administration groups are successfully modeled | IL-13 level in serums ([4]; SP peptide high-dosage treatment administration group, 250 μg/kg·d s.c. every other day x15 from week 15): significantly decreased | IL-13 level in serums ([4]; SP peptide low-dosage treatment administration group, 62.5 μg/kg·d s.c. every other day x15 from week 15): significantly decreased | IL-13 level in serums ([4]; SP peptide medium-dosage treatment administration group, 125 μg/kg·d s.c. every other day x15 from week 15): significantly decreased | level of cytokines r-IFN, IL-4 and IL-10 [5]: increased level | TNF-α level [6]: reducing TNF-α level
